The values that follow come from ChEMBL document CHEMBL3297698, “Novel synthetic route for antimalarial benzo[a]phenoxazine derivative SSJ-183 and two active metabolites” (Bioorg Med Chem, 2014).

pIC50: −log10 of the molar value.

For test [1], the system named is Plasmodium falciparum. As to the kind of experiment: Antimalarial activity against Plasmodium falciparum K1 assessed as inhibition of [3H]hypoxanthine incorporation preincubated for 48 hrs measured 24 hrs post [3H]hypoxanthine addition by liquid scintillation counting. Type of test: functional, organism-based.
Test [2] has as its system Plasmodium falciparum. The experiment in a line: Antimalarial activity against Plasmodium falciparum […] assessed as inhibition of [3H]hypoxanthine incorporation preincubated for 48 hrs measured 24 hrs post [3H]hypoxanthine addition by liquid scintillation counting. The class given is functional, organism-based.

Consider `CCN(CC)c1ccc2nc3c4ccccc4/c(=N\c4ccncc4)cc-3oc2c1`, for which the negative logarithm of the IC50 (pIC50) is 8.19 in test [1] and 7.96 in test [2].
Taken in the same sequence, the figures for `CCNc1ccc2nc3c4ccccc4/c(=N/c4ccncc4)cc-3oc2c1` were 8.30 and 8.12.
Taken in the same sequence, the figures for `Nc1ccc2nc3c4ccccc4/c(=N/c4ccncc4)cc-3oc2c1` were 7.77 and 7.62.
Take `CN(C)c1ccc2nc3ccc(=[N+](C)C)cc-3sc2c1` [METHYLENE BLUE CATION]: the values for the negative logarithm of the IC50 (pIC50) in test [1] and in test [2] were 8.28 and 8.38, respectively.
